This passage reports Ames test results from patent US4797427A, “Aromatic diamines containing sulfonic acid aryl esters, a process for their production and their use in the production of polyurethane plastics” (Bayer Aktiengesellschaft, priority 1987, dated 1989).

The series in a line: Ames test. Type of series: cell-based.

On to `Cc1c(N)cc(S(=O)(=O)Oc2ccccc2)cc1N` [2,6-diaminotoluene-4-sulfonic acid phenyl ester], for which the Ames test entry is “Ames-negative”.
